The text below walks through data of patent US20190308988A1, “OPIOID RECEPTOR ANTAGONIST PRODRUGS” (Nirsum Laboratories, Inc., priority 2017, published 2019).

The nature of data set [1]: Liver S9 fraction stability, human. It counts as in vitro ADME. The following applies: human liver S9 1.0 mg/ml, 2 μM, 37° C. As for the experimental part:
(§1) Liver S9 fraction stability determination of the test compounds in dog, cynomolgus monkey and human is performed using HPLC-MS. Test compound (2 μM, 0.1% DMSO, 1% Methanol final concentration) was assessed for stability in a 50 μl phosphate buffer containing 1.0 mg/ml S9 protein from each of the three species and 5 mM D-saccharic acid-1, 4-lactone. Samples were incubated at 37° C. for 60 minutes and the % compound remaining was assessed.

Data set [2] in a line: Plasma stability, monkey plasma (HPLC-MS). It counts as in vitro ADME, Cynomolgus Monkey. The following applies: 2 μM, 37° C. As for the experimental part: (§2) Plasma Stability Determination of the Test Compounds in Rat, Dog, Cynomolgus Monkey and human plasma is performed using HPLC-MS. For rat, incubations are carried out in 96-well polypropylene plates in 5 aliquots of 70 μL each (one for each time point). […] Five time points are analyzed (0, 15, 120, 480 and 1440 min). […] All incubations are performed in duplicates. The samples are analyzed by HPLC-MS. The percentage of parent compound remaining after incubation in plasma is determined.

Data set [3] in a line: Liver S9 fraction stability, monkey. It counts as in vitro ADME, cynomolgus monkey. The following applies: monkey liver S9 1.0 mg/ml, 2 μM, 37° C. As for the experimental part: as §1
Data set [4] is described as follows: Liver S9 fraction stability, dog. In kind it is in vitro ADME. The following applies: dog liver S9 1.0 mg/ml, 2 μM, 37° C. As for the experimental part:
as §1

For data set [5] the following is noted: in vivo; cited from earlier work.
Data set [6] in a line: Plasma stability, human plasma (HPLC-MS). It counts as in vitro ADME. The following applies: 2 μM, 37° C., 120 min. The method, then:
as §2

In the case of `CCCCCCCCCCCCCCCC(=O)OC1CCCn2c1nc(C)c(CCN1CCC(c3noc4cc(F)ccc34)CC1)c2=O` (stereo not drawn) [Paliperidone palmitate, reference compound], the “% remaining at 60 minutes, Human” value in data set [1] was 47.8%. Also, the “% remaining at time point in minutes, 15 min” value in data set [2] is 92%. In data set [3], the “% remaining at 60 minutes, Monkey” value is 57.4%. For the same molecule, in data set [4], the “% remaining at 60 minutes, Dog” value is on record as 56.4%.

Consider `Oc1ccc2c3c1O[C@H]1[C@H](O)CC[C@@]4(O)[C@@H](C2)N(CC2CC2)CC[C@]314` [6-β-naltrexol], for which the mean elimination half-life entry in data set [5] is “thirteen”.

As to `CCCCCCCCCCCC(=O)OCN1C(=O)CCc2ccc(OCCCCN3CCN(c4cccc(Cl)c4Cl)CC3)cc21` [Aripiprazole lauroxil, reference compound], the “% remaining at time point in minutes, 120 min” value in data set [6] turned out to be 80%. Moreover, in data set [1], the “% remaining at 60 minutes, Human” value came to 47.8%. For the same molecule, the “% remaining at 60 minutes, Monkey” value in data set [3] came to 56.6%. Further, the “% remaining at 60 minutes, Dog” value in data set [4] worked out at 66.1%.
